These results are taken from patent US20140296174A1, “SILK-BASED MULTIFUNCTIONAL BIOMEDICAL PLATFORM” (TUFTS UNIVERSITY, priority 2011, published 2014).

The nature of data set [1]: Doxorubicin storage stability in silk films/MPAs versus solution (fluorescence). The settings on record: 3 weeks at −20° C. and 60° C.; excitation 430, emission 550. In kind it is physicochemical.
Method: Silk films for degradation and stability studies were prepared by casting of 6% (w/v) silk solution containing 1.0 mg/mL doxorubicin on a patterned mold. After drying at ambient conditions for 48 hours the samples were removed and vapor annealed for 24 hours as previously described (Jin et al., 2005).
After 3 weeks, the silk films were degraded with 10 mg/mL proteinase k for 6 hours, and doxorubicin concentration for all samples was determined by comparing fluorescence to a standard curve of known concentrations (excitation=430, emission=550).
The silk DxR-MPA was evaluated at different time points for optical performance and drug content eluted by measuring absorbance at 495 nm and comparing measured values to a standard curve (FIGS. 11A & 33). […] The doxorubicin-loaded silk-MPAs were stored at −20° C.
A short description of data set [2]: Binding of doxorubicin to silk carrier. In kind it is physicochemical. The settings on record: typically. An excerpt: In addition to having properties which make silk well suited to drug delivery in general, silk is uniquely suited to deliver doxorubicin, as we have observed that doxorubicin interacts strongly with the silk. […] The interaction between the silk and the doxorubicin also results in a large fraction (typically more than 50%) of the total doxorubicin dose is bound to the carrier. In some embodiments, therefore, the carrier may be proteolytically degraded to enhance release the bound doxorubicin. This provide an opportunity to design protease-triggered drug release systems. […] Degradation-mediated drug release from silk biomaterials can be used to design systems that provide drug locally proportionately to disease progression: aggressive disease/increased proteolysis would degrade the silk carrier more rapidly, releasing larger doses of drug than in healthy tissue.

The conditions of data set [3]: silk microspheres, depending on processing pH; cited from earlier work.

Consider `COc1cccc2c1C(=O)c1c(O)c3c(c(O)c1C2=O)C[C@@](O)(C(=O)CO)C[C@@H]3O[C@H]1C[C@H](N)[C@H](O)[C@H](C)O1` [doxorubicin], for which the “doxorubicin fluorescence after storage” value in data set [1] was “decreases”. The “fraction of the total doxorubicin dose bound to the carrier” value in data set [2] is recorded as “more than 50%”.

As to `CN(C)c1ccc(C(=C2C=CC(=[N+](C)C)C=C2)c2ccc(N(C)C)cc2)cc1` [crystal violet], in data set [3], the fraction released is 25-60%.
